Assay results taken from patent US10409869B2, “(R)- and (S)-1-(3-(3-N,N-dimethylaminocarbonyl)phenoxyl-4-nitrophenyl)-1-ethyl-N,N'-bis (ethylene)phosphoramidate, compositions and methods for their use and preparation” (OBI Pharma, Inc., priority 2015, dated 2019).

Experiments:
[1] = Plasma concentration and TK after 30-min IV infusion at 2 mg/kg; format: in vivo, Cynomolgus monkeys; conditions: Cynomolgus, cynomolgus monkey, plasma, iv, 2 mg/kg
Protocol: (§1) TH 3423 and TH 3424 were tested in […] naïve monkeys (1 male and one female for each compound at 2 mg/kg) with 30-min intravenous infusion, TK sampling: on Day 1 and Day 15: 0.25, 0.5, 0.75, 1 and 2 hr post infusion initiation. Serum chemistry and hematology: pre-dose (Day 1), day 5, day 8 (pre-dose), day 15 (pre-dose), day 22 and day 28. Clinical observation: Daily during the study, total 35 days. Food consumption: Daily during the study, total 35 days. Bodyweight measurement: Twice weekly for five weeks.

[2] = Hematology in monkeys, 2 mg/kg 30-min IV infusion; format: in vivo, Cynomolgus monkeys; conditions: female
Protocol: as §1

C[C@H](OP(=O)(N1CC1)N1CC1)c1ccc([N+](=O)[O-])c(Oc2cccc(C(=O)N(C)C)c2)c1 (single isomer, unassigned) [TH3424]
AUC(0-inf) ([1]; both sexes, Mean): 1460 ng·h/mL
AUC(0-t) ([1]; both sexes, Mean): 1460 ng·h/mL
AUC(0-inf) ([1]; female): 1200 ng·h/mL
AUC(0-t) ([1]; female): 1200 ng·h/mL
AUC(0-inf) ([1]; male): 1730 ng·h/mL
AUC(0-t) ([1]; male): 1720 ng·h/mL
% BASO ([2]; Day 1 (pre-dose)): 0.1%
% EOS ([2]; Day 1 (pre-dose)): 3.3%
% MONO ([2]; Day 1 (pre-dose)): 0.9%
% NEUT ([2]; Day 1 (pre-dose)): 72.8%
HCT ([2]; Day 1 (pre-dose)): 35.7%
HGB ([2]; Day 1 (pre-dose)): 118 g/L
LYM ([2]; Day 1 (pre-dose)): 22.9%
MCH ([2]; Day 1 (pre-dose)): 25.4 pg
MCHC ([2]; Day 1 (pre-dose)): 331 g/L
MCV ([2]; Day 1 (pre-dose)): 76.8 fL
MPV ([2]; Day 1 (pre-dose)): 13 fL
PCT ([2]; Day 1 (pre-dose)): 0.277%
PDW ([2]; Day 1 (pre-dose)): 15.4
PLT ([2]; Day 1 (pre-dose)): 2.13e+11 L⁻¹
RBC ([2]; Day 1 (pre-dose)): 4.65e+12 L⁻¹
RDW-CV ([2]; Day 1 (pre-dose)): 11.5%
RDW-SD ([2]; Day 1 (pre-dose)): 37.4 fL
WBC ([2]; Day 1 (pre-dose)): 1.164e+10 L⁻¹
abs_basos ([2]; Day 1 (pre-dose)): 1e+07 L⁻¹
abs_eos ([2]; Day 1 (pre-dose)): 3.9e+08 L⁻¹
abs_lymphs ([2]; Day 1 (pre-dose)): 2.66e+09 L⁻¹
abs_monos ([2]; Day 1 (pre-dose)): 1.1e+08 L⁻¹
abs_neuts ([2]; Day 1 (pre-dose)): 8.47e+09 L⁻¹
% EOS ([2]; Day 8 (pre-dose)): 1.50%
% MONO ([2]; Day 8 (pre-dose)): 0.20%
% NEUT ([2]; Day 8 (pre-dose)): 49.10%
HCT ([2]; Day 8 (pre-dose)): 39.30%
HGB ([2]; Day 8 (pre-dose)): 130.00 g/L
LYM ([2]; Day 8 (pre-dose)): 18.90%
MCH ([2]; Day 8 (pre-dose)): 25.30 pg
MCHC ([2]; Day 8 (pre-dose)): 331.00 g/L
MCV ([2]; Day 8 (pre-dose)): 76.30 fL
MPV ([2]; Day 8 (pre-dose)): 12.80 fL
PCT ([2]; Day 8 (pre-dose)): 0.50%
PDW ([2]; Day 8 (pre-dose)): 15.50
PLT ([2]; Day 8 (pre-dose)): 3.9e+11 L⁻¹
RBC ([2]; Day 8 (pre-dose)): 5.15e+12 L⁻¹
RDW-CV ([2]; Day 8 (pre-dose)): 11.20%
RDW-SD ([2]; Day 8 (pre-dose)): 36.20 fL
WBC ([2]; Day 8 (pre-dose)): 1.691e+10 L⁻¹
abs_basos ([2]; Day 8 (pre-dose)): 5.13e+09 L⁻¹
abs_eos ([2]; Day 8 (pre-dose)): 2.6e+08 L⁻¹
abs_lymphs ([2]; Day 8 (pre-dose)): 3.2e+09 L⁻¹
abs_monos ([2]; Day 8 (pre-dose)): 3e+07 L⁻¹
abs_neuts ([2]; Day 8 (pre-dose)): 8.29e+09 L⁻¹
% BASO ([2]; Day 15 (pre-dose)): 0.90%
% EOS ([2]; Day 15 (pre-dose)): 1.70%
% MONO ([2]; Day 15 (pre-dose)): 3.00%
% NEUT ([2]; Day 15 (pre-dose)): 80.8%
HCT ([2]; Day 15 (pre-dose)): 36.3%
HGB ([2]; Day 15 (pre-dose)): 125 g/L
LYM ([2]; Day 15 (pre-dose)): 13.60%
MCH ([2]; Day 15 (pre-dose)): 25.3 pg
MCHC ([2]; Day 15 (pre-dose)): 344 g/L
MCV ([2]; Day 15 (pre-dose)): 73.5 fL
MPV ([2]; Day 15 (pre-dose)): 12.5 fL
PCT ([2]; Day 15 (pre-dose)): 0.275%
PDW ([2]; Day 15 (pre-dose)): 16.2
PLT ([2]; Day 15 (pre-dose)): 2.21e+11 L⁻¹
RBC ([2]; Day 15 (pre-dose)): 4.94e+12 L⁻¹
RDW-CV ([2]; Day 15 (pre-dose)): 11.0%
RDW-SD ([2]; Day 15 (pre-dose)): 34.1 fL
WBC ([2]; Day 15 (pre-dose)): 2.07e+10 L⁻¹
abs_basos ([2]; Day 15 (pre-dose)): 1.9e+08 L⁻¹
abs_eos ([2]; Day 15 (pre-dose)): 3.7e+08 L⁻¹
abs_lymphs ([2]; Day 15 (pre-dose)): 2.8e+09 L⁻¹
abs_monos ([2]; Day 15 (pre-dose)): 6.2e+08 L⁻¹
